# Source: patent US5128242A, “Hypothalamic polypeptides with adenylate cyclase stimulating activity” (The Administrators of the Tulane Educational Fund, priority 1989, dated 1992)
# “Also recorded” adds a separate entry of the source. Ends that are not written are not given here.
# How the values were obtained:
# [1] = tested on: rat pituitary cell cultures; experiment: Intracellular cAMP accumulation in cultured pituitary cells; format: cell-based; conditions: temporal changes, concentration not given
# Description: FIG. 6a. Intracellular cAMP accumulation in cultured pituitary cells.
# We also determined temporal changes in intracellular cAMP levels in rat pituitary cell cultures.
# rat pituitary fragments = conditions: in vitro; Arimura et al. 1984; cited from earlier work
# adenylate cyclase = conditions: rat pituitary cell cultures
# Experimental: Primary monolayer rat anterior pituitary cell culture was prepared as described previously (Culler et al., 1984). Anterior pituitaries from CD strain female rats of approximately 200 g bw (Charles River Breeding Labs, Wilmington, Mass.) at a random stage of estrous cycle were enzymatically dispersed with collagenase Type II and DNAse II. Dispersed cells were collected by centrifugation and washed three times with HEPES buffer and finally suspended in Dulbecco,s modified Eagle's medium (DMEM) containing 10% horse serum, 2.5% fetal calf serum and 1% antibiotic antimycotic solution (Gibco/Life Technologies, Grand Isle, NY) The cells are plated in 24-multiwell tissue culture plates (Falcon, Oxnard, Calif.) at a density of 1.5×10^5 cells/ml/well, and then incubated at 37° C. in a water-saturated atmosphere of 95% air 5% CO2 for 4 days. Prior to acute stimulation, cultured cells were incubated for 3 hr in serum-free DMEM with two changes of the medium. The cells were then incubated for 3 hr in 0.5 ml of HEPES-buffered DMEM containing test materials. Ascorbic acid (2.5×10^-4 M) and 0.25% BSA were routinely added to the medium during assay incubation in order to prevent possible oxidation and adsorption of test samples. […]
# Cyclic AMP in the culture media was determined by RIA as described by Harper and Brooker (J. Cyclic Nucleo. Res. 1:207, 1975). […]
# arterial blood pressure = experiment: Determination of depressor activity (arterial blood pressure) in urethane-anesthetized rats; format: in vivo, rat; conditions: for vasodepressor activity: urethane-anaesthetized rats, dose range 0.33 nmole to 1.0 nmole
# Experimental: Arterial blood pressure was measured in urethane (150 mg/100 g ip) anesthetized adult male rats. Polyethylene tubing (PE50) which was connected with a pressure transducer P-1000 B (Narco Bio-Systems) was inserted into the femoral artery. Blood pressure was recorded using Narcotrace 40. Another polyethylene tube (PE50) was inserted into a femoral vein for injection of test materials dissolved in 0.5 ml 0.9% saline.
# astrocytes = experiment: Intracellular cAMP accumulation in cultured astrocytes; format: cell-based, rat; conditions: for intracellular cAMP response in astrocytes: 10^-9 M added to culture medium
# Experimental: FIG. 6b. Intracellular cAMP accumulation in cultured astrocytes.
# (§1) For studies on neurons, rat neuronal cell cultures were prepared by the method described by Raizada et al. (Raizada et al. Am. J. Physiol. 247:C364, 1984). Astrocyte cultures were prepared using the single-step transfer method as described by Clarke et al. (Clark et al., J. Biol. Chem. 259:11672, 1984). […] Intracellular cAMP levels remained elevated for at least 60 minutes in astrocytes, but began to decrease after 10 min in neurons.
# neurons [2] = experiment: Intracellular cAMP accumulation in cultured neurons; format: cell-based, rat; conditions: for intracellular cAMP response in neurons: 10^-9 M added to culture medium
# Experimental: FIG. 6c. Intracellular cAMP accumulation in cultured neurons.
# as §1
# neurons [3] = conditions: De Brenneman et al. 1987, 1988; cited from earlier work
# [4] = tested on: superfused pituitary cells; experiment: Superfusion method using rat pituitary cell column: release of pituitary hormones; format: cell-based
# Experimental: FIGS. 5A-5D. The effect of synthetic PACAP38 on the release of pituitary hormones from superfused pituitary cells. A pituitary cell superfusion method to determine the hypophysiotropic activity of samples was conducted as reported by Vigh and Schally. The peptide was applied as a 3 min pulse. The numbers at top indicate; 1,7: 100 mM KCl, 2: 10^-10 M PACAP38, 3: 10^-9 M PACAP38, 4: 10^-8 M PACAP38, 5: 10^-7 M PACAP38, 6: 10^-6 M PACAP38. 0.9 ml fractions were collected every 3 min.
# A pituitary cell superfusion method to determine the hypophysiotropic activity of samples was conducted as reported by Vigh and Schally (1984). Pituitaries obtained from 3 adult female rats were cut into small pieces and incubated in a Dubnoff incubator for 45 min at 37° C. in 10 ml of oxygenated Medium 199 (Gibco/Life Technologies) containing 0.5% collagenase (Sigma Type I), 0.25% BSA and […] gentamicin sulphate (Sigma). After this incubation, there were no apparent changes in the pituitary tissue, but the fragments could be easily dispersed into single cells by repeated suction and expulsion from a Pasteur pipet. After 30 to 60 pipet operations, the tissue fell apart. The cell suspension was centrifuged at room temperature for 10 min at 100×g. The cell pellet was then resuspended in 1.0 ml medium. A small aliquot was diluted to count the cells, and the remainder of the suspension was divided into 2 equal volumes. Each volume (containing about 5×10^6 cells and usually between 3.5 and 7.0×10^6) was mixed with 0.5 ml Sephadex G-15 which had been equilibrated with previously oxygenated medium. The mixture of pituitary cells and Sephadex was transferred into 2 chambers of the superfusion apparatus and perfused with the medium. The medium was always freshly prepared in a way similar to that for enzymatic dispersion, omitting the collagenase, then passed through a Millipore filter, and continuously gassed with a mixture of O2 (95%) and CO2 (5%) during the experiment. The flow rate of the medium through the superfusion system was controlled by a multichannel pump (Gilson Minipulse Type HP-8) which was placed behind the superfusion chamber; the tuning of the lower plunger was connected to the pump, and from there to a two-channel fraction collector. Thus, the system was operated with negative pressure in order to get fewer fluctuations in the flow rate. Samples were applied as a 3 min pulse followed by the medium superfusion. Superfusate was collected as 3 min fractions, 0.9 ml per fraction.
# [5] = superfused rat pituitary cells, hormone release
compound,measurement,setting,value
"growth hormone releasing hormone (YADAIFTNSYRKVLGQLSARKLLQDIMSRQQGESNQERGARARL; ends and bridges not checked; UniProt P01286 32-75, looked up) [GRH]",intracellular cAMP accumulation (extent and pattern),[1],greatest accumulation of intracellular cAMP
"HP: ovine hypothalamic peptide, partial N-terminal sequence His-Ser-Asp-Gly-Ile-Phe-Thr-Asp-Ser-Tyr-Lys-Arg-Tyr-Asn-Lys-Glu-Met-Ala-Lys- (HSDGIFTDSYKRYNKEMAK; printed: His-Ser-Asp-Gly-Ile-Phe-Thr-Asp-Ser-Tyr-Lys-Arg-Tyr-Asn-Lys-Glu-Met-Ala-Lys-)",GH release from rat pituitary fragments,rat pituitary fragments,stimulated GH release
CC[C@H](C)[C@H](NC(=O)CNC(=O)[C@H](CC(=O)O)NC(=O)[C@H](CO)NC(=O)[C@@H](N)Cc1c[nH]cn1)C(=O)N[C@@H](Cc1ccccc1)C(=O)N[C@H](C(=O)N[C@@H](CC(=O)O)C(=O)N[C@@H](CO)C(=O)N[C@@H](Cc1ccc(O)cc1)C(=O)N[C@@H](CO)C(=O)N[C@@H](CCCNC(=N)N)C(=O)N[C@@H](Cc1ccc(O)cc1)C(=O)N[C@@H](CCCNC(=N)N)C(=O)N[C@@H](CCCCN)C(=O)N[C@@H](CCC(N)=O)C(=O)N[C@@H](CCSC)C(=O)N[C@@H](C)C(=O)N[C@H](C(=O)N[C@@H](CCCCN)C(=O)N[C@@H](CCCCN)C(=O)N[C@@H](Cc1ccc(O)cc1)C(=O)N[C@@H](CC(C)C)C(=O)N[C@@H](C)C(=O)N[C@@H](C)C(=O)N[C@H](C(=O)N[C@@H](CC(C)C)C(N)=O)C(C)C)C(C)C)[C@@H](C)O [PACAP27NH2],ACSA activity compared with native PACAP38,adenylate cyclase; cAMP in medium after 3 hr incubation,"similar, if not greater"
same,intracellular cAMP accumulation (extent and pattern),[1],comparable extent and pattern of cAMP accumulation
"vasoactive intestinal peptide [VIP, reference compound]",vasodepressor activity,arterial blood pressure,comparable vasodepressor activity
same,intracellular cAMP response in astrocytes,astrocytes,did not induce an appreciable stimulation of cAMP
same,intracellular cAMP response in neurons,neurons [2],did not induce an appreciable stimulation of cAMP
same,protection of neurons from gp120-induced cell death,neurons [3],capable of protecting neurons from cell death
same,intracellular cAMP accumulation (extent and pattern),[1],little effect
"CRH: known hypothalamic releasing hormone (corticotropic releasing hormone) used for comparison (SEEPPISLDLTFHLLREVLEMARAEQLAQQAHSNRKLMEII; ends and bridges not checked; UniProt P06850 154-194, looked up)",intracellular cAMP accumulation (extent and pattern),[1],comparable extent and pattern of cAMP accumulation
CC[C@H](C)[C@H](NC(=O)CNC(=O)[C@H](CC(=O)O)NC(=O)[C@H](CO)NC(=O)[C@@H](N)Cc1c[nH]cn1)C(=O)N[C@@H](Cc1ccccc1)C(=O)N[C@H](C(=O)N[C@@H](CC(=O)O)C(=O)N[C@@H](CO)C(=O)N[C@@H](Cc1ccc(O)cc1)C(=O)N[C@@H](CO)C(=O)N[C@@H](CCCNC(=N)N)C(=O)N[C@@H](Cc1ccc(O)cc1)C(=O)N[C@@H](CCCNC(=N)N)C(=O)N[C@@H](CCCCN)C(=O)N[C@@H](CCC(N)=O)C(=O)N[C@@H](CCSC)C(=O)N[C@@H](C)C(=O)N[C@H](C(=O)N[C@@H](CCCCN)C(=O)N[C@@H](CCCCN)C(=O)N[C@@H](Cc1ccc(O)cc1)C(=O)N[C@@H](CC(C)C)C(=O)N[C@@H](C)C(=O)N[C@@H](C)C(=O)N[C@H](C(=O)N[C@@H](CC(C)C)C(=O)NCC(=O)N[C@@H](CCCCN)C(=O)N[C@@H](CCCNC(=N)N)C(=O)N[C@@H](Cc1ccc(O)cc1)C(=O)N[C@@H](CCCCN)C(=O)N[C@@H](CCC(N)=O)C(=O)N[C@@H](CCCNC(=N)N)C(=O)N[C@H](C(=O)N[C@@H](CCCCN)C(=O)N[C@@H](CC(N)=O)C(=O)N[C@@H](CCCCN)C(N)=O)C(C)C)C(C)C)C(C)C)[C@@H](C)O [PACAP38],depressor activity,"arterial blood pressure; anesthetized rats, injection into femoral vein","significant, but somewhat weaker"
same,vasodepressor activity,arterial blood pressure,comparable vasodepressor activity
same,"time intracellular cAMP levels remained elevated, astrocytes",astrocytes; 10^-9 M,at least 60 minutes
same,"time of first cAMP increase after addition, astrocytes",astrocytes; 10^-9 M,as early as one minute
same,intracellular cAMP response in astrocytes,astrocytes,extraordinarily large
same,FSH release,"[4]; 3 min pulse, 10^-10 to 10^-6 M",not altered; also recorded: not apparent
same,LH release,"[4]; 3 min pulse, 10^-10 to 10^-6 M",LH response was linear
same,TSH release,"[4]; 3 min pulse, 10^-10 to 10^-6 M",not altered; also recorded: not apparent
same,dose of maximum effect (bell-shaped dose response curve),[4]; [5],10^-8 M
same,minimum effective dose,[4]; [5],10^-10 M
same,adenylate cyclase stimulating activity relative to VIP,adenylate cyclase; fold of VIP,at least 100 times
same,"time after which intracellular cAMP began to decrease, neurons",neurons [2]; 10^-9 M,10 min
same,"time of first cAMP increase after addition, neurons",neurons [2]; 10^-9 M,as early as one minute
same,intracellular cAMP response in neurons,neurons [2],increased intracellular cAMP
same,intracellular cAMP accumulation (extent and pattern),[1],comparable extent and pattern of cAMP accumulation
